Results taken from US8940742B2, “Heterocyclic compounds and uses thereof” (Infinity Pharmaceuticals, Inc., priority 2012, dated 2015).

Columns and labels:
Experiment in all cases: PI3-Kinase Promega ADP-Glo Max assay
Assay type in all cases: biochemical
PI3K α = molecular target: T1, PI3K α (Homo sapiens, UniProt P42336); conditions: 20 nM kinase, 3 mM ATP, 500 uM diC8-PtdInsP
T1 construct: purchased Millipore
Experimental: (§1) Promega ADP-Glo Max assay kit (Cat. No. V7002) was utilized to determine IC50 values for α, β, δ and γ isoforms of human Class I PI3 kinases (Millipore). Samples of kinase (20 nM α or δ, 40 nM β or γ isoform) were incubated with compound for 15 minutes at room temperature in reaction buffer (15 mM HEPES pH 7.4, 20 mM NaCl, 1 mM EGTA, 0.02% Tween 20, 10 mM MgCl2, 0.2 mg/mL bovine-γ-globulins) followed by addition of ATP/diC8-PtdInsP mixture to give final concentrations of 3 mM ATP and 500 uM diC8-PtdInsP. Reactions were incubated at room temperature for 2 hours followed by addition of 25 uL of stop solution. After a 40-minute incubation at room temperature, 50 uL of Promega detection mix was added followed by incubation for 1 hour at room temperature. Plates were then read on Envision plate reader in luminescence mode. Data was converted to % inhibition using the following equation below:
(§2) [formula] where S is the sample luminescence, Pos is a positive control without added PI3K, Neg is the negative control without added compound. Data was then plotted as % inhibition vs compound concentration. Data fit to 4 parameter logistic equation to determine IC50 values: […]
(§3) Certain compounds provided herein were tested in PI3-Kinase Promega Assay using procedures as described above to determine IC50 values for α, β, δ and/or γ isoforms.

PI3K β = molecular target: T2, PI3K β (Homo sapiens, UniProt P42338); conditions: 40 nM kinase, 3 mM ATP, 500 uM diC8-PtdInsP
T2 construct: purchased Millipore
Experimental: as §1, §2, §3

PI3K δ = molecular target: T3, PI3K δ (Homo sapiens, UniProt O00329); conditions: 20 nM kinase, 3 mM ATP, 500 uM diC8-PtdInsP
T3 construct: purchased Millipore
Experimental: as §1, §2, §3

PI3K γ = molecular target: T4, PI3K γ (Homo sapiens, UniProt P48736); conditions: 40 nM kinase, 3 mM ATP, 500 uM diC8-PtdInsP
T4 construct: purchased Millipore
Experimental: Promega ADP-Glo Max assay kit (Cat. No. V7002) was utilized to determine IC50 values for α, β, δ and γ isoforms of human Class I PI3 kinases (Millipore). […] Reactions were incubated at room temperature for 2 hours followed by addition of 25 uL of stop solution. After a 40-minute incubation at room temperature, 50 uL of Promega detection mix was added followed by incubation for 1 hour at room temperature. Plates were then read on Envision plate reader in luminescence mode. Data was converted to % inhibition using the following equation below:
[formula] where S is the sample luminescence, Pos is a positive control without added PI3K, Neg is the negative control without added compound. Data was then plotted as % inhibition vs compound concentration.
as §3

T4 sequence (P48736 whole entry): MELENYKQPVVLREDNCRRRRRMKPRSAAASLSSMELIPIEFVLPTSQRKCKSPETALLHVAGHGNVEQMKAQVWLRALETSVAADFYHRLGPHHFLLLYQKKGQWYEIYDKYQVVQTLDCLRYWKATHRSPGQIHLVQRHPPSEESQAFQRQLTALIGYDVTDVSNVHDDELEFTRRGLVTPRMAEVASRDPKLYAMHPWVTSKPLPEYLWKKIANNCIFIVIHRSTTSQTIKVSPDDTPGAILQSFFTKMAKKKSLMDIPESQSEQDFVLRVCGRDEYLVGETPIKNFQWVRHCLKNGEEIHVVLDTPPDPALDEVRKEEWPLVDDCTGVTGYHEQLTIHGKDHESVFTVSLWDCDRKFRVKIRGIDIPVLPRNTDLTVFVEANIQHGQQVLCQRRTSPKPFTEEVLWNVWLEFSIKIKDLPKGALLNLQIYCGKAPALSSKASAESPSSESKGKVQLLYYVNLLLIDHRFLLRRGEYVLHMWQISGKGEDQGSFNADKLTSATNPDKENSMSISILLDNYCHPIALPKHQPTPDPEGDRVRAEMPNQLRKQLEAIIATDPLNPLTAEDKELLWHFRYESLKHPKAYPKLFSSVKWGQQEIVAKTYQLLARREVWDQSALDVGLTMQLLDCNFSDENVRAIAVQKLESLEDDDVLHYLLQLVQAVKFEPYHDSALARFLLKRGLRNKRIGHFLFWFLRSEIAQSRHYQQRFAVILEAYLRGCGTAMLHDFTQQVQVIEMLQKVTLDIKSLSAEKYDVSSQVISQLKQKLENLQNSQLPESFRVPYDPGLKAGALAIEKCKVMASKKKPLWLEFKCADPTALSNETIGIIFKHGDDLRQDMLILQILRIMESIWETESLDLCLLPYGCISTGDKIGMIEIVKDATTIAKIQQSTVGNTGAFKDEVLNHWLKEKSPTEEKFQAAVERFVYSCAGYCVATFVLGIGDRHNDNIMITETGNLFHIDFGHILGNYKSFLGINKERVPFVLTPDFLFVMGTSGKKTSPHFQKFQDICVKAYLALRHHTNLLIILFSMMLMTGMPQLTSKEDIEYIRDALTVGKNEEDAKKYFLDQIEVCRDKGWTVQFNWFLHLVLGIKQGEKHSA
T2 sequence (P42338 whole entry): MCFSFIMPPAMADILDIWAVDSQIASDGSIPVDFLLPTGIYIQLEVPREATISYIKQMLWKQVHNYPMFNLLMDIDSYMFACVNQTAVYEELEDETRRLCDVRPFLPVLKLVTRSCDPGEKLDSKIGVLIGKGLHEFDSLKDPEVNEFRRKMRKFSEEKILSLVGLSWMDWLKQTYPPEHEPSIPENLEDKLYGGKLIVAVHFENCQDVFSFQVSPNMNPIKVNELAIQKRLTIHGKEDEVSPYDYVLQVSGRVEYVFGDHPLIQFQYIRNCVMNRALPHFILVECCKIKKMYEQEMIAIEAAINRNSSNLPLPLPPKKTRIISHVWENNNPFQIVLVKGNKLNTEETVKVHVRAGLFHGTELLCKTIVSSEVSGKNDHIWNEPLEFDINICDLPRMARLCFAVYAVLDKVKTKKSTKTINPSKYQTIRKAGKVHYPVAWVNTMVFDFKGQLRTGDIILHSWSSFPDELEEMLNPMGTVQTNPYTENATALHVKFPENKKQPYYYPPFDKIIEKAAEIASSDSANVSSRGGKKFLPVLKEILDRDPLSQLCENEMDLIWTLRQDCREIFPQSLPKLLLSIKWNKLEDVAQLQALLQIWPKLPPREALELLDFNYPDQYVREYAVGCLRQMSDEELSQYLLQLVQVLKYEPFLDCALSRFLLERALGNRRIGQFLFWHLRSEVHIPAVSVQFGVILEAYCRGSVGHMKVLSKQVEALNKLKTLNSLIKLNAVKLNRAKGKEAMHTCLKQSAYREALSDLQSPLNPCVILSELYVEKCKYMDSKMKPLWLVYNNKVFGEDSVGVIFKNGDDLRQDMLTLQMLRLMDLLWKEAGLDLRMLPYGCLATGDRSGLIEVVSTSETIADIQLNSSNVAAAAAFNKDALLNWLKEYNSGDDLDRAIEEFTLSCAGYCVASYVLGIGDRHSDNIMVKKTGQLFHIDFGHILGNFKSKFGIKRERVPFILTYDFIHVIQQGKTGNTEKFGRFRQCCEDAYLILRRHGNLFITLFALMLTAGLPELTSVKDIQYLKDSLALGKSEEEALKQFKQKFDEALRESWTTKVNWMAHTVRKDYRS
T2 sequence (P27986 whole entry partner): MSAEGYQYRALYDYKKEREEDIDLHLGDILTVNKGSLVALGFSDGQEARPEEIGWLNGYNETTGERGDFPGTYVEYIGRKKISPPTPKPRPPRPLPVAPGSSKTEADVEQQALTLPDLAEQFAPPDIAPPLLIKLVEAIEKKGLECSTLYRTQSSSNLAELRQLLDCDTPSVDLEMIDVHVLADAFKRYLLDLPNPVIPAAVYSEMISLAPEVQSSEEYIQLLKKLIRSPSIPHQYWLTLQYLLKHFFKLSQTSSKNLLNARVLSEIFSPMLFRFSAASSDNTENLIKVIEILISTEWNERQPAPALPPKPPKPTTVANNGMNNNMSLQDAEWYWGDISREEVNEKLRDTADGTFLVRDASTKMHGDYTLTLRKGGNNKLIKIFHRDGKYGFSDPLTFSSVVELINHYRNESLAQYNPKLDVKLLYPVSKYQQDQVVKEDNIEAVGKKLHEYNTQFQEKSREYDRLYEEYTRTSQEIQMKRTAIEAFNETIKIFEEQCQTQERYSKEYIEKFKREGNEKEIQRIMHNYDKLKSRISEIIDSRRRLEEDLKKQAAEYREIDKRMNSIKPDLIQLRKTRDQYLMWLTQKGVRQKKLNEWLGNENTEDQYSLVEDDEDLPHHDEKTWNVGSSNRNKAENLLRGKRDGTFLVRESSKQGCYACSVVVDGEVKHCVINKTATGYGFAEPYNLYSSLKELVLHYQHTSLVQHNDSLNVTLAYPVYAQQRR
T3 sequence (O00329 whole entry): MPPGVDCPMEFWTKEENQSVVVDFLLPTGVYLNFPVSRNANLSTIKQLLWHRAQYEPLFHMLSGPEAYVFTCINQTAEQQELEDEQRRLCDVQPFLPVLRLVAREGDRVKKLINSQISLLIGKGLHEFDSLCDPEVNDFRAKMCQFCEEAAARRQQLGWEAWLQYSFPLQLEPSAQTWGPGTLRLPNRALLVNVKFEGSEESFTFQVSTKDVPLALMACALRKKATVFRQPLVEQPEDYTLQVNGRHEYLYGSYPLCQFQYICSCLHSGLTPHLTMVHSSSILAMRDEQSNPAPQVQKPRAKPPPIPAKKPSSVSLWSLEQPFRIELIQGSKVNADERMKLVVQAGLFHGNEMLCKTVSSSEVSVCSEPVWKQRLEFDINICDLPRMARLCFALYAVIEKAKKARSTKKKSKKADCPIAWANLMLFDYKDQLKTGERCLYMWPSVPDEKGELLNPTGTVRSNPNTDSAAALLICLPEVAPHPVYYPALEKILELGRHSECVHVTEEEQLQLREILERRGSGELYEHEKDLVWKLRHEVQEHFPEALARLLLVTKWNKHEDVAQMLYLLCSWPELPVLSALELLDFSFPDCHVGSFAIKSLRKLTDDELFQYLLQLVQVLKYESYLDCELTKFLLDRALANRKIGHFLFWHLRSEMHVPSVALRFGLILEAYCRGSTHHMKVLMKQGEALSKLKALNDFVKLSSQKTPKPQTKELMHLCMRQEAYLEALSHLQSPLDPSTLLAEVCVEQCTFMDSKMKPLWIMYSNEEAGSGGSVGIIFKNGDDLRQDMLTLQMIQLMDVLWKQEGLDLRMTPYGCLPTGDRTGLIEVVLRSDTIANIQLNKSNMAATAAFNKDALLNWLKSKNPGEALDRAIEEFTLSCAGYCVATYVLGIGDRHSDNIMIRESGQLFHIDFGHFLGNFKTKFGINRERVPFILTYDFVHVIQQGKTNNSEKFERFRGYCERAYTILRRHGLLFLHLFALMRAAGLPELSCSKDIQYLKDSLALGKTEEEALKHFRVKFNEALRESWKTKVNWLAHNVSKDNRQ
T3 sequence (P27986 whole entry partner): as the sequence (P27986 whole entry partner) above
T1 sequence (P42336 whole entry): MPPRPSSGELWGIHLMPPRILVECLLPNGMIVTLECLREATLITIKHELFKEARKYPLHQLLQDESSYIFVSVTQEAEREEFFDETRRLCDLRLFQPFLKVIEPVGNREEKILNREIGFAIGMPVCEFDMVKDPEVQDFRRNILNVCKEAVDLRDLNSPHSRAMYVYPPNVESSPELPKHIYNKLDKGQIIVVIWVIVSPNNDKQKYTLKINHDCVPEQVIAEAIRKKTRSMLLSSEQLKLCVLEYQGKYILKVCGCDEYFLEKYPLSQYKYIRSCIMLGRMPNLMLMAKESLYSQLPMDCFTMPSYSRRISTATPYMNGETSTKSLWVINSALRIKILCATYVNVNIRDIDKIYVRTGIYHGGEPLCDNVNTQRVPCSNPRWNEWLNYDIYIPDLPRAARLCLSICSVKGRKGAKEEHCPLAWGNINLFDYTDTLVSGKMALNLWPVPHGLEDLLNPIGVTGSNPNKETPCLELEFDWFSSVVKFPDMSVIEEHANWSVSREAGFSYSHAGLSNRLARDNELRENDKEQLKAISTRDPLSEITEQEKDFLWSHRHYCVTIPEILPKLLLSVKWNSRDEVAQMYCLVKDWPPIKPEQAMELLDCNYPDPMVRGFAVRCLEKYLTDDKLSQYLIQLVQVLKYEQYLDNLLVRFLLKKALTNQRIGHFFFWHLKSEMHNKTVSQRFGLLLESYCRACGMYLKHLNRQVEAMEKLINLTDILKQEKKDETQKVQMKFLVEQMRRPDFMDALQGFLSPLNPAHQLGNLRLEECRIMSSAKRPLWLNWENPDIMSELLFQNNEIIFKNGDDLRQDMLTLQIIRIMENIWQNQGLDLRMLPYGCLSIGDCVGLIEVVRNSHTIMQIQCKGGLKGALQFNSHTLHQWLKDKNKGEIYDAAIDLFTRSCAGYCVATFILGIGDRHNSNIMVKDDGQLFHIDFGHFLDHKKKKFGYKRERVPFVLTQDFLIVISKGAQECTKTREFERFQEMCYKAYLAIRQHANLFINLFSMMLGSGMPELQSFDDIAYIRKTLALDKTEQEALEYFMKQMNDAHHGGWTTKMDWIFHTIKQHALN
T1 sequence (P27986 whole entry partner): as the sequence (P27986 whole entry partner) above

Row | SMILES | IC50 (PI3K α) [µM] | IC50 (PI3K β) [µM] | IC50 (PI3K δ) [µM] | IC50 (PI3K γ) [µM]
1 | COc1ccc(-c2cnc(N)c(C(=O)N[C@@H](C)c3cc4cccc(Cl)c4c(=O)n3-c3ccccc3)n2)cc1F [Compound 94] | > 10 | > 10 | 1 to 10 | 1 to 10
2 | C[C@H](NC(=O)c1nc(-c2cccc(S(=O)(=O)N3CCOCC3)c2)cnc1N)c1cc2cccc(Cl)c2c(=O)n1-c1ccccc1 [Compound 95] | > 10 | > 10 | > 10 | > 10
3 | C[C@H](NC(=O)c1nc(-c2cccc(S(=O)(=O)N3CCN(C)CC3)c2)cnc1N)c1cc2cccc(Cl)c2c(=O)n1-c1ccccc1 [Compound 100] | 1 to 10 | 1 to 10 | 1 to 10 | 1 to 10
4 | COc1cccc(-c2cnc(N)c(C(=O)N[C@@H](C)c3cc4cccc(Cl)c4c(=O)n3-c3ccccc3)n2)c1 [Compound 105] | > 10 | > 10 | > 10 | > 10
5 | Nc1nn2cccnc2c1C(=O)N1CCC[C@H]1c1cc2cccc(Cl)c2c(=O)n1-c1ccccc1 [Compound 147] | > 10 | 1 to 10 | > 10 | 1 to 10
6 | Nc1nccnc1C(=O)N1CCC[C@H]1c1cc2cccc(Cl)c2c(=O)n1-c1ccccc1 [Compound 148] | > 10 | > 10 | 1 to 10 | > 10
7 | C[C@H](NC(=O)c1nc(-c2cncc(NS(C)(=O)=O)c2)cnc1N)c1cc2cccc(Cl)c2c(=O)n1C1CC1 [Compound 172] | < 0.1 | < 0.1 | < 0.1 | < 0.1
8 | CC(C)c1ccnc2c(C(=O)N[C@@H](C)c3cc4cccc(Cl)c4c(=O)n3-c3ccccc3)c(N)nn12 [Compound 177] | > 10 | > 10 | > 10 | > 10
9 | CC(=O)Nc1ncc(-c2cccc(NS(C)(=O)=O)c2)nc1C(=O)N[C@@H](C)c1cc2cccc(Cl)c2c(=O)n1C [Compound 185] | > 10 | > 10 | > 10 | > 10
10 | C[C@H](NC(=O)c1c(N)nn2cccnc12)c1cc2cccc(/C=C/c3ccccc3)c2c(=O)n1-c1ccccc1 [Compound 199] | > 10 | > 10 | > 10 | > 10
11 | COc1cc(-c2csc3cc([C@H](C)NC(=O)c4c(N)nn5cccnc45)n(-c4ccccc4)c(=O)c23)ccn1 [Compound 213] | > 10 | > 10 | > 10 | > 10
12 | C[C@H](NC(=O)c1c(N)nn2cccnc12)c1cc2cccc(/C=N\O)c2c(=O)n1-c1ccccc1 [Compound 226] | > 10 | > 10 | 1 to 10 | 0.1 to 1
13 | C[C@H](NC(=O)c1c(N)nn2cccnc12)c1cc2cccc(CNCC3CCCO3)c2c(=O)n1-c1ccccc1 (stereo partly shown) [Compound 229] | > 10 | > 10 | 1 to 10 | 1 to 10
14 | CNCc1cccc2cc([C@H](C)NC(=O)c3c(N)nn4cccnc34)n(-c3ccccc3)c(=O)c12 [Compound 230] | > 10 | > 10 | 1 to 10 | > 10
15 | C[C@H](NC(=O)c1c(N)nn2cccnc12)c1cc2cccc(CN(C)C)c2c(=O)n1-c1ccccc1 [Compound 231] | > 10 | > 10 | < 0.1 | > 10
16 | CC(=O)N(C)Cc1cccc2cc([C@H](C)NC(=O)c3c(N)nn4cccnc34)n(-c3ccccc3)c(=O)c12 [Compound 232] | > 10 | > 10 | < 0.1 | > 10
17 | COc1cc(-c2cccc3cc([C@H](C)NC(=O)c4c(N)nn5cccnc45)n(C4CCCCC4)c(=O)c23)ccn1 [Compound 233] | > 10 | > 10 | > 10 | 1 to 10
18 | CNCCn1c([C@H](C)NC(=O)c2c(N)nn3cccnc23)cc2cccc(Cl)c2c1=O [Compound 241] | 1 to 10 | < 0.1 | < 0.1 | 1 to 10
19 | C[C@H](NC(=O)c1c(N)nn2cccnc12)c1cc2cccc(Cl)c2c(=O)n1CCNCCO [Compound 243] | 1 to 10 | < 0.1 | 0.1 to 1 | 1 to 10

Row | SMILES | IC50 (PI3K α) [µM] | IC50 (PI3K β) [µM] | IC50 (PI3K δ) [µM] | IC50 (PI3K γ) [µM]
20 | COc1ncc(-c2cccc3cc([C@H](C)NC(=O)c4c(N)nn5cccnc45)n(-c4ccccc4)c(=O)c23)s1 [Compound 246] | > 10 | > 10 | 1 to 10 | 0.1 to 1
21 | CC(=O)Nc1ncc(-c2cccc3cc([C@H](C)NC(=O)c4c(N)nn5cccnc45)n(-c4ccccc4)c(=O)c23)s1 [Compound 247] | 1 to 10 | > 10 | 1 to 10 | 0.1 to 1
22 | COC(=O)c1ncsc1-c1cccc2cc([C@H](C)NC(=O)c3c(N)nn4cccnc34)n(-c3ccccc3)c(=O)c12 [Compound 248] | > 10 | > 10 | > 10 | 1 to 10
23 | C[C@H](NC(=O)c1c(N)nn2cccnc12)c1c(Br)c2cccc(F)c2c(=O)n1-c1ccccc1 [Compound 255] | 1 to 10 | 1 to 10 | 1 to 10 | 0.1 to 1
24 | COc1cccc2c(Br)c([C@H](C)NC(=O)c3c(N)nn4cccnc34)n(-c3ccccc3)c(=O)c12 [Compound 256] | > 10 | > 10 | 1 to 10 | 0.1 to 1
25 | COc1cccc2c(C)c([C@H](C)NC(=O)c3c(N)nn4cccnc34)n(-c3ccccc3)c(=O)c12 [Compound 261] | > 10 | > 10 | 1 to 10 | 0.1 to 1
26 | C[C@H](NC(=O)c1nc(-c2cccc(NS(C)(=O)=O)c2)cnc1N)c1cc2cccc(N3CCOCC3)c2c(=O)n1-c1ccccc1 [Compound 263] | > 10 | > 10 | > 10 | 1 to 10
27 | C[C@H](NC(=O)c1c(N)nn2cccnc12)c1cc2cccc(N3CCN(C)CC3)c2c(=O)n1-c1ccccc1 [Compound 264] | > 10 | > 10 | > 10 | > 10
28 | C[C@H](NC(=O)c1c(N)nn2cccnc12)c1cc2cccc(NC3CCCCC3)c2c(=O)n1-c1ccccc1 [Compound 265] | > 10 | > 10 | > 10 | > 10
29 | CC(C)Nc1cccc2cc([C@H](C)NC(=O)c3c(N)nn4cccnc34)n(-c3ccccc3)c(=O)c12 [Compound 268] | > 10 | > 10 | > 10 | > 10
30 | Nc1nn2cccnc2c1C(=O)NCc1cc2cccc(Cl)c2c(=O)n1-c1ccccc1 [Compound 274] | > 10 | > 10 | > 10 | > 10
31 | C[C@H](NC(=O)c1c(N)nn2cccnc12)c1nn2ccc(Cl)c2c(=O)n1-c1ccccc1 [Compound 286] | > 10 | > 10 | > 10 | > 10
32 | C[C@H](NC(=O)c1c(N)nn2cccnc12)c1nn2ccc(-c3cnn(C)c3)c2c(=O)n1-c1ccccc1 [Compound 287] | > 10 | > 10 | > 10 | > 10
33 | Cc1cnc(C(=O)N[C@@H](C)c2c(Br)c3cccc(Cl)c3c(=O)n2-c2ccccc2)c(N)n1 [Compound 288] | > 10 | > 10 | 1 to 10 | 1 to 10
34 | C[C@H](NC(=O)c1nccnc1N)c1nc2cccc(Cl)c2c(=O)n1-c1ccccc1 [Compound 289] | > 10 | 1 to 10 | < 0.1 | 0.1 to 1
35 | C[C@H](NC(=O)c1c(N)nn2cccnc12)c1cc2cccc(Cl)c2c(=O)n1CC(=O)N(C)C [Compound 296] | > 10 | 1 to 10 | > 10 | > 10
36 | C[C@H](NC(=O)c1c(N)oc2cccnc12)c1cc2cccc(Cl)c2c(=O)n1-c1ccccc1 [Compound 298] | > 10 | 1 to 10 | 1 to 10 | 1 to 10
37 | C[C@H](NC(=O)c1c(N)nn2cccnc12)c1cc2cccc(OC(F)(F)F)c2c(=O)n1-c1ccccc1 [Compound 302] | > 10 | > 10 | 1 to 10 | 1 to 10
